These results are taken from patent publication US20070158208A1, “Apparatus and methods for treating ballast water by using electrolysis of natural seawater” (Research Institute of Industrial Science & Technology, priority 2003, published 2007).

Each structure is given as a SMILES string.

One assay relates to Acartia spp.(Copepoda). In words: Influence density of NaOCl in electrolyzed water on marine ecosystem. The assay is classed as in vivo. How it is done:
(§1) In the meantime, according to the present invention, marine microorganisms are effectively killed. Influence density for most of organisms in the seawater by electrolyzed water is shown on Table 1 below. As a result of performing the present invention, it has been checked by a natural eye that organisms causing red tide is completely eliminated within 1-2 minutes after spreading of the electrolyzed water. A density of Cochlodinium which has been a population of 7-8 thousand/ml in an actual relevant sea area has approached almost zero after four hours elapse, showing high relief efficiency. If the NaOCl component density required by the electrolyzed water is controlled, complete elimination of marine microorganisms is achieved.

Assay [1] relates to Adult benthic fauna: Tapes philippinarum, Giant pacific oyster, Pachygrapsus crassipes. The assay is described as above. Type of assay: in vivo. How it is done:
as §1

Assay [2] deals with Adult seaweeds: Borphyra seriata, Ulva pertusa. The assay is described as above. The assay is classed as in vivo. How it is done: as §1
The subject of assay [3] is Artemia larva(Kugenumaenis). Described as above. The assay is classed as in vivo. The note with it: Benthic fauna larva. How it is done: as §1
The next assay concerns Barnacle larva. The description is as above. Type of assay: in vivo. The note with it: Benthic fauna larva. How it is done: as §1
The test system of assay [4] is Fish: Bastard halibut fry, sebastes schlegeli fry. The description is as above. Type of assay: in vivo. How it is done:
as §1

For the next assay, the system named is Oxyrrhis marina. Described as above. Type of assay: in vivo. The note with it: Protista. How it is done:
as §1

The test system of a further assay is Polykrikos kofodidii. The assay is described as above. Type of assay: in vivo. The note with it: Protista. How it is done: as §1
The test system of assay [5] is Pseudodiaptomus spp.(Copepoda). The description is as above. Type of assay: in vivo. The note with it: Zooplankton. How it is done:
as §1

Assay [6] concerns Seaweeds spore: Borphyra seriata, Ulva pertusa, Brown seaweed. The description is as above. The assay is classed as in vivo. How it is done:
as §1

A further assay has as its system Strombidinopsis sp. The assay is described as above. The note with it: Protista. Type of assay: in vivo. How it is done:
as §1

For assay [7] the following is noted: NaOCl obtained during the electrolysis compared with HCl; cited from earlier work.

Regarding `[Na+].[O-]Cl` [NaOCl], the Influence density was 2.0 ppm in the assay on Acartia spp.(Copepoda); 20 or more ppm in assay [1]; 1.0-1.5 ppm in [2]; 30-50 ppm in assay [3]; 50 ppm in the assay on Barnacle larva; 2-5 ppm in [4]. The Influence density with Oxyrrhis marina was 0.3 ppm; in the assay on Polykrikos kofodidii, 0.75-1.0 ppm; in assay [5], 10-20 ppm; in [6] it was 0.1-0.3 ppm; with Strombidinopsis sp, 0.75-1.0 ppm. Further, in [7], the “Insecticide and sterilizing effects relative to HCl” value is on record as “about 1.4 times”.
